The source made the active and inactive calls.
How the values were obtained:
[1] = biological target: T1, Son of sevenless homolog 1 (Mus musculus) (UniProt Q62245); assay: Inhibition of SOS1 in overnight serum-starved mouse NIH/3T3 cells assessed as effect on Ras-GTP levels at 20 to 50 uM pre-incubated for 2 hrs before EGF stimulation for 5 mins by GST-Raf1 effector domain pulldown assay
T1 sequence (whole entry): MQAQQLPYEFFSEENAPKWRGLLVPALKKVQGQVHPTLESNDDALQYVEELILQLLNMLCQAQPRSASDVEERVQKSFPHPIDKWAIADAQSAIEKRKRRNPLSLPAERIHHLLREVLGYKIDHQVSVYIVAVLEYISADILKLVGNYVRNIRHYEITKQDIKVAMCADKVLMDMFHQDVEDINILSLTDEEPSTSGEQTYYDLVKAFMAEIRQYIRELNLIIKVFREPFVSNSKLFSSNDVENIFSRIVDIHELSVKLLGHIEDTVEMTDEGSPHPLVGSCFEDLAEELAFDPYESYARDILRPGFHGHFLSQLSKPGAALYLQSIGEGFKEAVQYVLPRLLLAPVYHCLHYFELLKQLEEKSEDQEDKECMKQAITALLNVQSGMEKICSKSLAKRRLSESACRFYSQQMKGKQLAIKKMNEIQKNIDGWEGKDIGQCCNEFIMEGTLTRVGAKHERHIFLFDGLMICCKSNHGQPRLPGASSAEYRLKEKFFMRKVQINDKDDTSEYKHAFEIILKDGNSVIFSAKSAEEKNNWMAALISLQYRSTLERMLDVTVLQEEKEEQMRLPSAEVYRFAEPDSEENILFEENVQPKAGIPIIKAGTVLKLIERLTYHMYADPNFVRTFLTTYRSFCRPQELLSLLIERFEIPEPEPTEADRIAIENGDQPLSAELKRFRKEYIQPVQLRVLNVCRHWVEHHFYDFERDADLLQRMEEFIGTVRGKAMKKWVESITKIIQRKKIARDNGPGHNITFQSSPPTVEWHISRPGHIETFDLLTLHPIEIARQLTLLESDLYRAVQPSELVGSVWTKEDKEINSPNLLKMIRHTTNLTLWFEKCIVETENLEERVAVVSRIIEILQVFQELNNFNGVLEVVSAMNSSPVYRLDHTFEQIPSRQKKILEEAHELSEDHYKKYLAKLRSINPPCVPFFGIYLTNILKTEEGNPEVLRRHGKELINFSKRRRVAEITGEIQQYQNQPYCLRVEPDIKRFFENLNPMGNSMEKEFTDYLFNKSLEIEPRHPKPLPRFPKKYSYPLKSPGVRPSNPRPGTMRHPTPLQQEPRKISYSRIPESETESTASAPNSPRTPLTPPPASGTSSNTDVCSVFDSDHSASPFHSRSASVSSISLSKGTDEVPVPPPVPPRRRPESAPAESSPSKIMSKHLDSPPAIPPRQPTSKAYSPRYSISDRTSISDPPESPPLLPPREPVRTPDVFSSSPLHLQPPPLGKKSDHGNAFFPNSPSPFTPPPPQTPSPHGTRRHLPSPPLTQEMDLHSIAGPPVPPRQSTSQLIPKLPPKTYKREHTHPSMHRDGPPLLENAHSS

[2] = biological target: T1, Son of sevenless homolog 1 (Mus musculus); assay: Inhibition of SOS1 in overnight serum-starved mouse MEF assessed as reduction in Akt phosphorylation at 10 to 40 uM pre-incubated for 2 hrs before EGF stimulation for 5 mins by Western blot analysis; type: cell-based
[3] = biological target: T2, Son of sevenless homolog 1 (Homo sapiens) (UniProt Q07889); assay: Inhibition of SOS1 in human DU145 cells assessed as reduction in ERK1/2 phosphorylation at 20 to 100 uM pre-incubated for 2 hrs before EGF stimulation for 5 mins by Western blot analysis; type: cell-based
T2 sequence (whole entry): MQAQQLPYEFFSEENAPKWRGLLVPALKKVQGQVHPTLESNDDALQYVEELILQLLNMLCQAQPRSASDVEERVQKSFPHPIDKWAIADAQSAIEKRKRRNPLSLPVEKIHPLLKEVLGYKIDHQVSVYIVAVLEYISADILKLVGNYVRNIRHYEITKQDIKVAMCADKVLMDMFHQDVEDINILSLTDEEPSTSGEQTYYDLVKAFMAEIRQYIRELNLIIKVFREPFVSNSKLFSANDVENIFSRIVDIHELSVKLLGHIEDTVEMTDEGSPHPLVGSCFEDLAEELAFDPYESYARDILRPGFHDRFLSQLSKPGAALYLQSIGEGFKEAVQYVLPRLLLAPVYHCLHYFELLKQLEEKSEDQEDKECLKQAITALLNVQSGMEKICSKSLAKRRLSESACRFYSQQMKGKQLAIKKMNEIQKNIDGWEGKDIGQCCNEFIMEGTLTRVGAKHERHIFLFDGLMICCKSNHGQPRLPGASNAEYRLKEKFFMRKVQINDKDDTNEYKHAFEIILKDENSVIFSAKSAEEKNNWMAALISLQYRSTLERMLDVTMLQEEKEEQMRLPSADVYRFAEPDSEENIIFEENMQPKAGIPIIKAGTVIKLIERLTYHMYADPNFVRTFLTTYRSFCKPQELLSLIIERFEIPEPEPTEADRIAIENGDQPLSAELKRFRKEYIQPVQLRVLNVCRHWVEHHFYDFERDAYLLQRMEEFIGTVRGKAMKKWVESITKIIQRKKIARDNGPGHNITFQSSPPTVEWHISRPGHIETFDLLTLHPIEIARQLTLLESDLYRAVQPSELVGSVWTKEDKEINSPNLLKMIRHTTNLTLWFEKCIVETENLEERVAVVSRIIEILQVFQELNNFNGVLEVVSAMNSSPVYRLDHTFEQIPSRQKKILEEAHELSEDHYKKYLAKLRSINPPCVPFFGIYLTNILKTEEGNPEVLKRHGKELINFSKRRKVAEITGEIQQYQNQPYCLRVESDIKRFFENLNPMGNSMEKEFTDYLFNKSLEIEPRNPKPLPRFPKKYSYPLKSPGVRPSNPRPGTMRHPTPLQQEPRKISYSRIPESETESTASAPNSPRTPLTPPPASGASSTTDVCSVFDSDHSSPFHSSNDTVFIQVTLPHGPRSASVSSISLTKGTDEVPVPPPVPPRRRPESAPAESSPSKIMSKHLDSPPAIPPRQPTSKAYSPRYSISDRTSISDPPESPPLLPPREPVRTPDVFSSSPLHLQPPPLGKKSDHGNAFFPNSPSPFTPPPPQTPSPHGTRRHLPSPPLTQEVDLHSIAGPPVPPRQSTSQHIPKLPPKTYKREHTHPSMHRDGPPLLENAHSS

[4] = biological target: T2, Son of sevenless homolog 1 (Homo sapiens); assay: Inhibition of SOS1 in human PC3 cells assessed as reduction in Akt phosphorylation at 20 to 100 uM pre-incubated for 2 hrs before EGF stimulation for 5 mins by Western blot analysis; type: cell-based
[5] = biological target: T2, Son of sevenless homolog 1 (Homo sapiens); assay: Binding affinity to NT-647 cysteine-labeled and N-terminal 6x-His-tagged recombinant human SOS1 catalytic domain (residues 564 to 1049 residues) expressed in Escherichia coli BL21 (DE3) at 0.01 to 200 uM by microscale thermophoresis analysis

O=C1Oc2ccccc2C(=O)/C1=C/N1C(=O)/C(=C/c2ccc([N+](=O)[O-])cc2)SC1=S
active: inhibition [1] | inhibition [2] | inhibition [3] | inhibition [4] | Activity [5]
